This note sets out measurements from patent US8829034B2, “Compounds which modulate the CB2 receptor” (Boehringer Ingerlheim International GmbH, priority 2006, dated 2014).

This assay addresses T1, human CB2R (Homo sapiens, UniProt P34972).
T1 construct: host or cells: CHO cells
The experiment in a line: CB2R mediated modulation of cAMP synthesis. It is filed as cell-based. The following applies: for agonistic activity: found through the use of the above described assays. The essentials:
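CHO cells expressing human CB2R were treated with compound for 30 min at 37 °C in buffer containing 1 mM IBMX, 0.25% BSA and 10 uM forskolin. cAMP was measured after lysis. EC50 was taken as 50% inhibition of forskolin-stimulated cAMP, with 100% defined by 1 uM CP55940, using a four-parameter logistic fit.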

Setting [1] is: CHO cells expressing human CB2R, inhibition of forskolin-stimulated cAMP synthesis, compounds having agonist activity, read-out: CB2 EC50.

Molecules are shown by their SMILES. Read-outs that look alike come from different tables or passages of the source.

T1 sequence (P34972 whole entry): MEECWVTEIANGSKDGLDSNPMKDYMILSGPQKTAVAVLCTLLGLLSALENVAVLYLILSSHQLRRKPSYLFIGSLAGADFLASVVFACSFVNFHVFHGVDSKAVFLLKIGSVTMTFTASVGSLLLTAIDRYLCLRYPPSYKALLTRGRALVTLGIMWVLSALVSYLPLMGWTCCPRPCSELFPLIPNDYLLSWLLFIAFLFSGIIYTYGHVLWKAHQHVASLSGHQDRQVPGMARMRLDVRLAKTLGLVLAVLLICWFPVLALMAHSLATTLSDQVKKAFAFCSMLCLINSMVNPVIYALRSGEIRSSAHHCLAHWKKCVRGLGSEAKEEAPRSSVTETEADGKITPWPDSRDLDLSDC

`CC(C)C(C(=O)Nc1cc(C(C)(C)C)on1)S(=O)(=O)C(C)C` (stereo not drawn) [N-(5-tert-Butyl-isoxazol-3-yl)-3-methyl-2-(propane-2-sulfonyl)-butyramide]: the agonistic activity entry is “agonistic activity”.

For orientation: EC50 means the concentration that produces a half-maximal response. On to `CCCS(=O)(=O)C(C)(C)C(=O)Nc1nc(C2CCCCC2)cs1` [N-(4-Cyclohexyl-thiazol-2-yl)-2-methyl-2-(propane-1-sulfonyl)-propionamide], for which a half-maximal response (EC50) required 31.1 nM and the agonistic activity entry is reported as “agonistic activity”.

As to `CC(C)S(=O)(=O)C(C)(C)C(=O)Nc1nc(-c2ccccc2)cs1` [2-Methyl-N-(4-phenyl-thiazol-2-yl)-2-(propane-2-sulfonyl)-propionamide], the agonistic activity entry is “agonistic activity”.

Take `CC(C)(C)c1nnc(NC(=O)C(C)(C)S(=O)(=O)C2CCCC2)s1` [N-(5-tert-Butyl-1,3,4-thiadiazol-2-yl)-2-cyclopentanesulfonyl-2-methyl-propionamide]: the EC50 came to 18.6 nM and the agonistic activity entry was “agonistic activity”.

On to `Cn1nc(C(C)(C)C)cc1NC(=O)C(C)(C)S(=O)(=O)CC1CCOCC1` [N-(5-tert-Butyl-2-methyl-2H-pyrazol-3-yl)-2-methyl-2-(tetrahydro-pyran-4-ylmethanesulfonyl)-propionamide], for which the agonistic activity entry is recorded as “agonistic activity”.

For the compound `CC(C)(C(=O)Nc1cc(C(F)(F)F)ccn1)S(=O)(=O)CC1CCOCC1` [2-Methyl-2-(tetrahydro-pyran-4-ylmethanesulfonyl)-N-(4-trifluoromethyl-pyridin-2-yl)-propionamide], the agonistic activity result was “agonistic activity”.

On to `CC(C)(C)c1cccc(NC(=O)C(C)(C)S(=O)(=O)CC2CCOCC2)c1` [N-(3-tert-Butyl-phenyl)-2-methyl-2-(tetrahydro-pyran-4-ylmethanesulfonyl)-propionamide], for which the response was half-maximal at 14.3 nM (EC50) and the agonistic activity entry was “agonistic activity”.

Turning to `Cn1nc(C(C)(C)C)cc1NC(=O)C(C)(C)S(=O)(=O)CC1CCCCO1` (stereo not drawn) [N-(5-tert-Butyl-2-methyl-2H-pyrazol-3-yl)-2-methyl-2-(tetrahydro-pyran-2-ylmethanesulfonyl)-propionamide], the agonistic activity result was “agonistic activity”.

Take `CC(C)CCS(=O)(=O)C(C)(C)C(=O)Nc1cc(C(C)(C)C)no1` [N-(3-tert-Butyl-isoxazol-5-yl)-2-methyl-2-(3-methyl-butane-1-sulfonyl)-propionamide]: the agonistic activity result is on record as “agonistic activity”. Further, the EC50 under setting [1] is 0.04 nM.

Consider `CC(C)(C)c1csc(NC(=O)C(C)(C)S(=O)(=O)Cc2ccc(Cl)cc2)n1` [N-(4-tert-Butyl-thiazol-2-yl)-2-(4-chloro-phenylmethanesulfonyl)-2-methyl-propionamide], for which the agonistic activity entry is reported as “agonistic activity”.

For the compound `CC(C)(C(=O)Nc1nc(-c2ccccc2)cs1)S(=O)(=O)CC1CCOCC1` [2-Methyl-N-(4-phenyl-thiazol-2-yl)-2-(tetrahydro-pyran-4-ylmethanesulfonyl)-propionamide], a half-maximal response (EC50) required 7.1 nM and the agonistic activity entry was “agonistic activity”.

Turning to `CC(C)(C(=O)Nc1cccc(C(F)(F)F)c1)S(=O)(=O)CC1CCOCC1` [2-Methyl-2-(tetrahydro-pyran-4-ylmethanesulfonyl)-N-(3-trifluoromethyl-phenyl)-propionamide], the agonistic activity result was “agonistic activity”.

For `Cc1nc(NC(=O)C(C)(C)S(=O)(=O)C(C)(C)C)sc1C(C)(C)C` [N-(5-tert-Butyl-4-methyl-thiazol-2-yl)-2-methyl-2-(2-methyl-propane-2-sulfonyl)-propionamide], the EC50 is 10.7 nM and the agonistic activity result was “agonistic activity”.

In the case of `CC(C)(C)c1cc(NC(=O)C(C)(C)S(=O)(=O)Cc2ccc(Cl)cc2)no1` [N-(5-tert-Butyl-isoxazol-3-yl)-2-(4-chloro-phenylmethanesulfonyl)-2-methyl-propionamide], a half-maximal response (EC50) required 16.6 nM and the agonistic activity entry was “agonistic activity”.

Consider `CC(C)(C(=O)Nc1ccc(C(F)(F)F)cc1)S(=O)(=O)CC1CCOCC1` [2-Methyl-2-(tetrahydro-pyran-4-ylmethanesulfonyl)-N-(4-trifluoromethyl-phenyl)-propionamide], for which the agonistic activity result is listed as “agonistic activity”.

In the case of `Cc1nc(NC(=O)C(C)(C)S(=O)(=O)C(C)C)sc1C(C)(C)C` [N-(5-tert-Butyl-4-methyl-thiazol-2-yl)-2-methyl-2-(propane-2-sulfonyl)-propionamide], the EC50 came out at 25.8 nM and the agonistic activity entry is “agonistic activity”.

With `CC(C)(C)c1cc(NC(=O)C(C)(C)S(=O)(=O)CC2CC2)no1` [N-(5-tert-Butyl-isoxazol-3-yl)-2-cyclopropylmethanesulfonyl-2-methyl-propionamide], the EC50 was found to be 34.3 nM and the agonistic activity result is listed as “agonistic activity”.

In the case of `Cn1nc(C(C)(C)C)cc1NC(=O)C(C)(C)S(=O)(=O)C1CCOCC1` [N-(5-tert-Butyl-2-methyl-2H-pyrazol-3-yl)-2-methyl-2-(tetrahydro-pyran-4-sulfonyl)-propionamide], the agonistic activity entry is “agonistic activity”.

Turning to `CC(C)(C(=O)Nc1nc(-c2cccnc2)cs1)S(=O)(=O)CC1CCOCC1` [2-Methyl-N-(4-pyridin-3-yl-thiazol-2-yl)-2-(tetrahydro-pyran-4-ylmethanesulfonyl)-propionamide], the agonistic activity entry is “agonistic activity”.

As to `CC(C)(C(=O)Nc1ccc2ccccc2n1)S(=O)(=O)CC1CCOCC1` [2-Methyl-N-quinolin-2-yl-2-(tetrahydro-pyran-4-ylmethanesulfonyl)-propionamide], the response was half-maximal at 5.8 nM (EC50) and the agonistic activity result was “agonistic activity”.

For the compound `CC(C)(C(=O)Nc1nc(C(F)(F)F)cs1)S(=O)(=O)C1CCCC1` [2-Cyclopentanesulfonyl-2-methyl-N-(4-trifluoromethyl-thiazol-2-yl)-propionamide], the agonistic activity result is listed as “agonistic activity”.

`CC(C)(C)c1csc(NC(=O)C(C)(C)S(=O)(=O)C2CCCC2)n1` [N-(4-tert-Butyl-thiazol-2-yl)-2-cyclopentanesulfonyl-2-methyl-propionamide]: the concentration giving a half-maximal response (EC50) stood at 19 nM and the agonistic activity entry is on record as “agonistic activity”.

Regarding `CC(C)(C)c1cc(NC(=O)C2(S(=O)(=O)CC3CCOCC3)CCC2)on1` [1-(Tetrahydro-pyran-4-ylmethanesulfonyl)-cyclobutanecarboxylic acid (3-tert-butyl-isoxazol-5-yl)-amide], the EC50 was 6.2 nM and the agonistic activity entry is “agonistic activity”.

Regarding `CC(C)CS(=O)(=O)C(C)(C)C(=O)Nc1cc(C(C)(C)C)on1` [N-(5-tert-Butyl-isoxazol-3-yl)-2-methyl-2-(2-methyl-propane-1-sulfonyl)-propionamide], the EC50 is 44.6 nM and the agonistic activity result is listed as “agonistic activity”.

With `CC(C)(C)c1cc(NC(=O)C(C)(C)S(=O)(=O)CC#N)no1` [N-(5-tert-Butyl-isoxazol-3-yl)-2-cyanomethanesulfonyl-2-methyl-propionamide], the agonistic activity entry is listed as “agonistic activity”.

For the compound `CC(C)(C(=O)Nc1nc(-c2ccccc2)ns1)S(=O)(=O)CC1CCOCC1` [2-Methyl-N-(3-phenyl-1,2,4-thiadiazol-5-yl)-2-(tetrahydro-pyran-4-ylmethanesulfonyl)-propionamide], the agonistic activity entry was “agonistic activity”.

Consider `Cc1ccc(NC(=O)C(C)(C)S(=O)(=O)CC2CCOCC2)nc1` [2-Methyl-N-(5-methyl-pyridin-2-yl)-2-(tetrahydro-pyran-4-ylmethanesulfonyl)-propionamide], for which the agonistic activity result is listed as “agonistic activity”.

Turning to `CC(C)(C)c1cc(NC(=O)C(C)(C)S(=O)(=O)C2CCOCC2)no1` [N-(5-tert-Butyl-isoxazol-3-yl)-2-methyl-2-(tetrahydro-pyran-4-sulfonyl)-propionamide], the agonistic activity result is reported as “agonistic activity”. Besides, the EC50 under setting [1] was 0.7 nM.

In the case of `CCCS(=O)(=O)C(C)(C)C(=O)Nc1cc(CC(C)(C)C)no1` [N-[3-(2,2-Dimethyl-propyl)-isoxazol-5-yl]-2-methyl-2-(propane-1-sulfonyl)-propionamide], the agonistic activity entry is listed as “agonistic activity”.

Take `CC(C)(C)c1cc(NC(=O)C2(S(=O)(=O)C3CCCCC3)CCC2)no1` [1-Cyclohexanesulfonyl-cyclobutanecarboxylic acid (5-tert-butyl-isoxazol-3-yl)-amide]: the half-maximal effective concentration (EC50) stood at 0.5 nM and the agonistic activity result is reported as “agonistic activity”.

In the case of `CC(C)S(=O)(=O)C(C)(C)C(=O)Nc1cccc(C(C)(C)C)c1` [N-(3-tert-Butyl-phenyl)-2-methyl-2-(propane-2-sulfonyl)-propionamide], the agonistic activity result was “agonistic activity”.

Take `Cc1nc(NC(=O)C(C)(C)S(=O)(=O)C2CCOCC2)sc1C(C)(C)C` [N-(5-tert-Butyl-4-methyl-thiazol-2-yl)-2-methyl-2-(tetrahydro-pyran-4-sulfonyl)-propionamide]: the EC50 is 0.3 nM and the agonistic activity entry is reported as “agonistic activity”.

Regarding `CC(C)(C(=O)Nc1nc2ccccc2o1)S(=O)(=O)CC1CCOCC1` [N-Benzooxazol-2-yl-2-methyl-2-(tetrahydro-pyran-4-ylmethanesulfonyl)-propionamide], the agonistic activity result is “agonistic activity”.

As to `Cc1c(-c2ccccc2)nn(C)c1NC(=O)C(C)(C)S(=O)(=O)CC1CCOCC1` [N-(2,4-Dimethyl-5-phenyl-2H-pyrazol-3-yl)-2-methyl-2-(tetrahydro-pyran-4-ylmethanesulfonyl)-propionamide], the agonistic activity entry is listed as “agonistic activity”.

Regarding `CC(C)(C(=O)Nc1nc(C2CC2)cs1)S(=O)(=O)CC1CCOCC1` [N-(4-Cyclopropyl-thiazol-2-yl)-2-methyl-2-(tetrahydro-pyran-4-ylmethanesulfonyl)-propionamide], the agonistic activity entry is listed as “agonistic activity”.
